Measured values from ChEMBL document CHEMBL1151681, “New Naphthalenyl Glucosides from the Roots of Juglans mandshurica” (J Nat Prod, 1996).
Converted amounts (≈) assume the structure as drawn.

Columns and labels:
U-937 = assay: Cytotoxicity against human U937 cells by MTT assay; type: functional, cell-based
[1] = Cytotoxicity against human Hep3B cells by MTT assay; type: functional, cell-based, Hep 3B2

Row | SMILES | IC50 (U-937) [µg/mL] | IC50 [1] [µg/mL]
1 | O=C(OC[C@H]1O[C@@H](Oc2ccc(O)c3cccc(O)c23)[C@H](O)[C@@H](O)[C@@H]1O)c1cc(O)c(O)c(O)c1 | 30 (≈ 61.2 µM) | > 100
2 | COc1cc(C(=O)OC[C@H]2O[C@@H](Oc3ccc(O)c4cccc(O)c34)[C@H](O)[C@@H](O)[C@@H]2O)cc(OC)c1O | 50 (≈ 96.4 µM) | > 100
